Measured values reported in PMC6934184, “Selective DNA-PKcs inhibition extends the therapeutic index of localized radiotherapy and chemotherapy” (The Journal of Clinical Investigation, 2019).

Molecular target: T1, PAK2 (PAK65) (Homo sapiens, UniProt Q13177)
T1 construct: purchased Thermo Fisher Scientific (Life Technologies) SelectScreen
Test: SelectScreen Z'LYTE
Format: biochemical
Method in brief: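 SelectScreen broad panel; activity (Z'LYTE, Adapta) plus binding formats. ATP: Km app for CSF1R Z'LYTE; 10 for CAMK1 Adapta. Readout = % per kinase.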

T1 sequence (Q13177 whole entry): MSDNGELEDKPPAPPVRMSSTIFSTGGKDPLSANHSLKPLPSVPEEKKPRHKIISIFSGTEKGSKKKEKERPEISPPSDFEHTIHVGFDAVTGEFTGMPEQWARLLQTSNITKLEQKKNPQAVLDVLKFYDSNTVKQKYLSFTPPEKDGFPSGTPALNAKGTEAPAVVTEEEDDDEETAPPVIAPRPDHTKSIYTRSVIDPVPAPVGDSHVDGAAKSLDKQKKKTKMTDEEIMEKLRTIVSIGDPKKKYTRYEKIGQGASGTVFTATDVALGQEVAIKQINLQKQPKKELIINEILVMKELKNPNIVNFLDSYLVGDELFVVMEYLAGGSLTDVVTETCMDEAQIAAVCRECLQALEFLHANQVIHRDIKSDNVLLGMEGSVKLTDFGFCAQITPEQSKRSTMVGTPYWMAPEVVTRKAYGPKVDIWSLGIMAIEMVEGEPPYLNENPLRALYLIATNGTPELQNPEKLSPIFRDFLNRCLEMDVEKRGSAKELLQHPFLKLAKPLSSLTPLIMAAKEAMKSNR

`CN(C(=O)CN1CCOCC1)c1ccc2sc3c(-c4cccc5c(=O)cc(N6CC7CCC(C6)O7)oc45)cccc3c2c1` [NU5455] was tested. Which inhibition at 1 µM did it give?
Its inhibition at 1 µM is 4%.
